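Following 48 hours of exposure in 96-well plates, responses at five concentrations were used to interpolate endpoints linearly. GI50: concentration for 50% inhibition of growth.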 Calls of active or inactive are those of the source. Cut-off read from the data, not from the text of the source: active = GI50 up to about 1.1 µM and inactive = higher.
Experiments:
Test in all cases: NCI anticancer screen, dose series, 48 h
786-0 = test system: 786-0
A549 = test system: A549
ACHN = test system: ACHN
CAKI-1 = test system: CAKI-1
CCRF-CEM = test system: CCRF-CEM
COLO 205 = test system: COLO 205
DU-145 = test system: DU-145
EKVX = test system: EKVX
HCC 2998 = test system: HCC 2998
HCT-116 = test system: HCT-116
HCT-15 = test system: HCT-15
HL-60 = test system: HL-60
HOP-62 = test system: HOP-62
HOP-92 = test system: HOP-92
HT-29 = test system: HT-29
Hs-578T = test system: Hs-578T
IGROV-1 = test system: IGROV-1
K562 = test system: K562
KM12 = test system: KM12
M14 = test system: M14
MCF7 = test system: MCF7
MDA-MB-231 = test system: MDA-MB-231
MDA-MB-435 = test system: MDA-MB-435
MOLT-4 = test system: MOLT-4
Malme-3M = test system: Malme-3M
NCI-H226 = test system: NCI-H226
NCI-H23 = test system: NCI-H23
NCI-H460 = test system: NCI-H460
NCI-H522 = test system: NCI-H522
NCI/ADR-RES = test system: NCI/ADR-RES
OVCAR-3 = test system: OVCAR-3
OVCAR-4 = test system: OVCAR-4
OVCAR-5 = test system: OVCAR-5
OVCAR-8 = test system: OVCAR-8
PC-3 = test system: PC-3
RPMI-8226 = test system: RPMI-8226
RXF 393 = test system: RXF 393
SF-268 = test system: SF-268
SF-295 = test system: SF-295
SF-539 = test system: SF-539
SK-MEL-28 = test system: SK-MEL-28
SK-MEL-2 = test system: SK-MEL-2
SK-MEL-5 = test system: SK-MEL-5
SK-OV-3 = test system: SK-OV-3
SN12C = test system: SN12C
SNB-19 = test system: SNB-19
SNB-75 = test system: SNB-75
SR = test system: SR
SW-620 = test system: SW-620
T47D = test system: T47D
TK-10 = test system: TK-10
UACC-257 = test system: UACC-257
UACC-62 = test system: UACC-62
UO-31 = test system: UO-31

In the case of Nc1ncc(Cc2nn3c(COc4ccc(Cl)cc4)nnc3s2)s1, the GI50 (786-0) is reported as > 100 µM (inactive), the GI50 (A549) is reported as > 100 µM (inactive) and the GI50 (ACHN) is reported as 0.0543 µM (active). For the same compound, the GI50 (CAKI-1) was > 100 µM (inactive), the GI50 (CCRF-CEM) was > 100 µM (inactive) and the GI50 (COLO 205) was > 100 µM (inactive). The GI50 (DU-145) was > 100 µM (inactive), the GI50 (EKVX) was > 100 µM (inactive) and the GI50 (HCC 2998) was > 100 µM (inactive). The GI50 (HCT-116) was > 100 µM (inactive), the GI50 (HCT-15) was 0.748 µM and the GI50 (HL-60) was > 100 µM (inactive). For the same compound, the GI50 (HOP-62) was > 100 µM (inactive), the GI50 (HOP-92) was > 100 µM (inactive) and the GI50 (HT-29) was > 100 µM (inactive). The GI50 (Hs-578T) was > 100 µM (inactive), the GI50 (IGROV-1) was > 100 µM (inactive) and the GI50 (K562) was > 100 µM (inactive). The GI50 (KM12) was 7.45 µM (inactive), the GI50 (M14) was > 100 µM (inactive) and the GI50 (MCF7) was > 100 µM (inactive). For the same compound, the GI50 (MDA-MB-231) was > 100 µM (inactive), the GI50 (MDA-MB-435) was > 100 µM (inactive) and the GI50 (MOLT-4) was > 100 µM (inactive). The GI50 (Malme-3M) was 3.61 µM (inactive), the GI50 (NCI-H226) was > 100 µM (inactive) and the GI50 (NCI-H23) was > 100 µM (inactive). For the same compound, the GI50 (NCI-H460) was > 100 µM (inactive), the GI50 (NCI-H522) was > 100 µM (inactive) and the GI50 (NCI/ADR-RES) was > 100 µM (inactive). The GI50 (OVCAR-3) was > 100 µM (inactive), the GI50 (OVCAR-4) was > 100 µM (inactive) and the GI50 (OVCAR-5) was > 100 µM (inactive). For the same compound, the GI50 (OVCAR-8) was > 100 µM (inactive), the GI50 (PC-3) was > 100 µM (inactive) and the GI50 (RPMI-8226) was > 100 µM (inactive). For the same compound, the GI50 (RXF 393) was > 100 µM (inactive), the GI50 (SF-268) was > 100 µM (inactive) and the GI50 (SF-295) was > 100 µM (inactive). The GI50 (SF-539) was > 100 µM (inactive), the GI50 (SK-MEL-28) was > 100 µM (inactive) and the GI50 (SK-MEL-2) was > 100 µM (inactive). For the same compound, the GI50 (SK-MEL-5) was > 100 µM (inactive), the GI50 (SK-OV-3) was > 100 µM (inactive) and the GI50 (SN12C) was > 100 µM (inactive). The GI50 (SNB-19) was > 100 µM (inactive), the GI50 (SNB-75) was > 100 µM (inactive) and the GI50 (SR) was 49.2 µM (inactive). The GI50 (SW-620) was > 100 µM (inactive), the GI50 (T47D) was > 100 µM (inactive) and the GI50 (TK-10) was 45.2 µM (inactive). The GI50 (UACC-257) was > 100 µM (inactive), the GI50 (UACC-62) was > 100 µM (inactive) and the GI50 (UO-31) was > 100 µM (inactive).

Source: ChEMBL document CHEMBL1201862, “PubChem BioAssay data set” (2004)
